System: TGF-b induced Endothelin-1 production
Test: ET-1 assay: inhibitory effect on TGF-b induced endothelin-1 production
Format: cell-based
Details: Homo sapiens, Fibroblast; fibroblasts, stimulant (TGFb, serum, LPA etc), ET-1 in media by ELISA, 4-parameter fit
Outline: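 Fibroblasts (primary human lung/dermal, HFL-1, 3T3) serum-starved 0-48 h, preincubated ~30 min with compound, then stimulated (TGFb, serum or LPA) for 16-48 h. Secreted ET-1 measured by ELISA; EC50 from 4-parameter logistic fit, with CC50 from ATPlite in the same wells.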

SMILES | EC50 [µM]
COc1ccc(-n2cc(-c3ccc(S(N)(=O)=O)cc3)ccc2=O)cc1 [Compound 328] | > 200
NS(=O)(=O)c1ccc(-c2ccc(=O)n(-c3cccc(C(F)(F)F)c3)c2)cc1 [Compound 329] | > 200
CC(C)Oc1ccc(-n2cc(-c3ccc(S(N)(=O)=O)cc3)ccc2=O)cc1 [Compound 330] | > 200
COc1cccc(-n2cc(-c3ccc(S(N)(=O)=O)cc3)ccc2=O)c1 [Compound 331] | > 200
COc1ccc(-n2cc(C)ccc2=S)cc1 [Compound 332] | > 200
Cc1ccc(=S)n(-c2ccc(OC(C)C)cc2)c1 [Compound 334] | > 200
Cc1ccc(=S)n(-c2ccc(F)cc2)c1 [Compound 336] | > 200
Cc1ccc(=S)n(-c2cccc(F)c2)c1 [Compound 338] | > 200
O=c1ccc(-c2cncnc2)cn1-c1ccc(F)cc1 [Compound 344] | > 200
O=c1ccc(-c2cncnc2)cn1-c1cccc(F)c1 [Compound 345] | > 200
O=c1ccc(-c2cncnc2)cn1-c1ccccc1F [Compound 346] | > 200
O=c1ncc(-c2ccnnc2)cn1-c1ccc(OC(F)(F)F)cc1 [Compound 347] | 50 to 200
Cc1cc(C)c(=O)n(-c2ccccc2)c1 [Compound 349] | > 200
Cc1cc(-c2cnn(C)c2)cn(-c2ccc(OC(F)(F)F)cc2)c1=O [Compound 352] | 50 to 200
O=c1cc2ccccc2cn1-c1ccccc1 [Compound 354] | 50 to 200
Cn1cc(-c2cnc(=O)n(-c3ccccc3)c2)cn1 [Compound 355] | > 200
O=c1ncc(-c2ccc(F)cc2)cn1-c1ccccc1 [Compound 356] | 50 to 200
O=c1ncc(-c2ccc(F)cc2)cn1-c1ccc(OC(F)(F)F)cc1 [Compound 357] | > 200
Cc1ccc(=O)n(-c2ccccc2)n1 [Compound 359] | > 200
Cn1cc(-c2ccc(=O)n(-c3ccccc3)n2)cn1 [Compound 361] | > 200
O=c1ccc(-c2ccc(F)cc2)nn1-c1ccc(OC(F)(F)F)cc1 [Compound 362] | > 200
Cn1cc(-c2ccc(=O)n(-c3ccc(OC(F)(F)F)cc3)n2)cn1 [Compound 363] | > 200

SMILES | EC50 [µM]
Cn1cc(-c2cnc(=O)n(-c3ccc(OC(F)(F)F)cc3)c2)cn1 [Compound 364] | > 200
O=C1NC=CCN1c1ccccc1 [Compound 365] | > 200
Cc1cc(=O)n(-c2ccccc2)cc1C [Compound 366] | > 200
Cc1cc(=O)n(-c2ccc(OC(F)(F)F)cc2)cc1C [Compound 367] | > 200
Cc1cc(=O)n(-c2ccc(OC(F)(F)F)cc2)cc1C(F)(F)F [Compound 368] | > 200
CC(C)Oc1ccc(-n2cc(-c3cn[nH]c3)ccc2=O)cc1 [Compound 369] | 50 to 200
COc1ccc(-n2cc(-c3cn[nH]c3)ccc2=O)cc1 [Compound 370] | > 200
O=c1ccc(-c2cn[nH]c2)cn1-c1ccc(Cl)cc1 [Compound 371] | > 200
O=c1ccc(-c2cn[nH]c2)cn1-c1cccc(F)c1 [Compound 372] | > 200
O=c1ccc(-c2cn[nH]c2)cn1-c1cccc(C(F)(F)F)c1 [Compound 373] | > 200
COc1cccc(-n2cc(-c3cn[nH]c3)ccc2=O)c1 [Compound 375] | > 200
O=c1ccc(-c2cn[nH]c2)cn1-c1ccc(F)cc1 [Compound 377] | 50 to 200
COc1cccc(-n2cc(-c3c(C)n[nH]c3C)ccc2=O)c1 [Compound 378] | 50 to 200
Cc1n[nH]c(C)c1-c1ccc(=O)n(-c2ccc(F)cc2)c1 [Compound 379] | > 200
Cc1n[nH]c(C)c1-c1ccc(=O)n(-c2ccc(Cl)cc2)c1 [Compound 380] | > 200
Cc1n[nH]c(C)c1-c1ccc(=O)n(-c2cccc(F)c2)c1 [Compound 381] | > 200
Cc1n[nH]c(C)c1-c1ccc(=O)n(-c2ccc(OC(C)C)cc2)c1 [Compound 382] | 50 to 200
Cc1n[nH]c(C)c1-c1ccc(=O)n(-c2cccc(C(F)(F)F)c2)c1 [Compound 384] | 50 to 200
CC(C)n1cc(-c2ccc(=O)n(-c3ccccc3)c2)cn1 [Compound 388] | > 200
Cc1n[nH]c(C)c1-c1ccc(=O)n(-c2ccncc2)c1 [Compound 390] | > 200
O=c1c2c(ccn2Cc2ccccc2)c(-c2ccc(F)cc2)cn1-c1ccc(OC(F)(F)F)cc1 [Compound 392] | > 200
Cn1cc(-c2cn(-c3ccc(OC(F)(F)F)cc3)c(=O)c3c2OCC(=O)N3)cn1 [Compound 393] | > 200

SMILES | EC50 [µM]
Cn1cc(-c2cn(-c3ccc(Cl)cc3)c(=O)c3nccnc23)cn1 [Compound 397] | > 200
Cn1cc(-c2cn(-c3ccc(C#N)cc3)c(=O)c3nccnc23)cn1 [Compound 398] | > 200
N#Cc1cc(=O)n(-c2ccc(OC(F)(F)F)cc2)cc1-c1ccc(F)cc1 [Compound 401] | > 200
Cn1cc(-c2cn(-c3ccc(OC(F)(F)F)cc3)c(=O)cc2Oc2ccccc2F)cn1 [Compound 408] | > 200
Cn1cc(-c2cn(-c3ccc(OC(F)(F)F)cc3)c(=O)cc2Oc2cccc(F)c2)cn1 [Compound 409] | < 50
Cn1cc(-c2cn(-c3ccc(OC(F)(F)F)cc3)c(=O)cc2Oc2ccc(Cl)cc2)cn1 [Compound 412] | > 200
CCOc1ccc(-n2cc(-c3ccc4ocnc4c3)c(C)cc2=O)c(C)c1 [Compound 420] | 50 to 200
Cc1cc(=O)n(-c2ccc(Cl)cc2)cc1-c1ccc2scnc2c1 [Compound 421] | 50 to 200
Cc1cc(=O)n(-c2ccc(Cl)cc2)cc1-c1ccc2ocnc2c1 [Compound 422] | > 200
Cc1cc(=O)n(-c2ccc(OC(F)(F)F)cc2)cc1-c1cccc2c1OCC(=O)N2 [Compound 423] | > 200
Cc1cc(=O)n(-c2ccc(OC(F)(F)F)cc2)cc1-c1cccc2c1NC(=O)CO2 [Compound 426] | > 200
Cc1cc(=O)n(-c2ccc(OC(F)(F)F)cc2)cc1-c1cccc2c1N(C)C(=O)CO2 [Compound 427] | > 200
Cc1cc(=O)n(-c2ccc(OC(F)(F)F)cc2)cc1-c1ccc2[nH]c(=O)oc2c1 [Compound 429] | > 200
CCOc1ccc(-n2cc(-c3ccc(F)cc3)ccc2=O)c(C)c1 [Compound 438] | > 200
Cc1ccccc1-n1cc(-c2cnn(C)c2)ccc1=O [Compound 439] | > 200
Cc1ccc(F)c(-c2ccccc2)c1 [Compound 440] | > 200
Cc1cc(=O)n(-c2ccc(OC(F)(F)F)cc2C)cc1-c1cnn(C)c1 [Compound 442] | > 200
Cn1cc(-c2cn(-c3ccc(OC(F)(F)F)cc3)c(=O)cc2NCc2ccc(C#N)cc2)cn1 [Compound 526] | > 200
Cn1cc(-c2cn(-c3ccc(OC(F)(F)F)cc3)c(=O)cc2NCc2ccc(C#N)cc2F)cn1 [Compound 527] | < 50
CCOc1ccc(CNc2cc(=O)n(-c3ccc(OC(F)(F)F)cc3)cc2-c2cnn(C)c2)c(F)c1 [Compound 528] | < 50
Cn1cc(-c2cn(-c3ccc(OC(F)(F)F)cc3)c(=O)cc2NCc2ncccn2)cn1 [Compound 529] | > 200
CCOc1ccc(CNc2cc(=O)n(-c3ccc(OC(F)(F)F)cc3)cc2-c2cnn(C)c2)cc1 [Compound 530] | < 50

SMILES | EC50 [µM]
Cn1cc(-c2cn(-c3ccc(F)cc3)c(=O)cc2Oc2ccccc2)cn1 [Compound 532] | < 50
COCCOc1ccc(Oc2cc(=O)n(-c3ccc(OC(F)(F)F)cc3)cc2-c2cnn(C)c2)cc1 [Compound 533] | 50 to 200
Cn1cc(-c2cn(-c3ccc(Cl)cc3)c(=O)cc2Oc2ccccc2)cn1 [Compound 534] | < 50
CC(=O)Nc1cccc(-n2cc(-c3ccc(F)cc3)c(Oc3ccccc3)cc2=O)c1 [Compound 536] | < 50
Cn1cc(-c2cn(-c3cccc(NC(N)=O)c3)c(=O)cc2Oc2ccccc2)cn1 [Compound 537] | < 50
COCCOc1ccc(-n2cc(-c3cnn(C)c3)c(Oc3ccccc3)cc2=O)cc1 [Compound 540] | < 50
CCOc1ccc(-n2cc(-c3ccc(F)cc3)c(Cl)cc2=O)c(C)c1 [Compound 541] | > 200
Cn1cc(-c2cn(-c3ccc(O)cc3)c(=O)cc2Oc2ccccc2)cn1 [Compound 545] | > 200
O=c1cc(NCc2ncccn2)ccn1-c1ccc(OC(F)(F)F)cc1 [Compound 546] | > 200
CCOc1ccc(-n2cc(-c3ccc4scnc4c3)c(C)cc2=O)c(C)c1 [Compound 552] | > 200
CCn1c(=O)oc2ccc(-c3cn(-c4ccc(OC(F)(F)F)cc4)c(=O)cc3C)cc21 [Compound 554] | > 200
Cc1cc(=O)n(-c2ccc(OC(F)(F)F)cc2)cc1-c1cccc2[nH]c(=O)oc12 [Compound 555] | > 200
CCn1c(=O)oc2c(-c3cn(-c4ccc(OC(F)(F)F)cc4)c(=O)cc3C)cccc21 [Compound 556] | > 200
Cc1cc(=O)n(-c2ccc(OC(F)(F)F)cc2)cc1-c1ccc2c(c1)oc(=O)n2CCO [Compound 558] | 50 to 200
Cc1cc(=O)n(-c2ccc(F)c(NC(N)=O)c2)cc1-c1ccc(F)cc1 [Compound 559] | < 50
Cc1cc(=O)n(-c2ccc(OC(F)(F)F)cc2)cc1-c1ccc2c(c1)OCC(=O)N2CCO [Compound 566] | > 200
Cc1nc2c(=O)n(-c3ccc(OC(F)(F)F)cc3)cc(-c3ccc(F)cc3)c2o1 [Compound 568] | > 200
N#Cc1ccc(-n2cc(-c3cn[nH]c3)c3nccnc3c2=O)cc1 [Compound 573] | > 200
O=c1c2nccnc2c(-c2cnn(CCO)c2)cn1-c1ccc(OC(F)(F)F)cc1 [Compound 577] | 50 to 200
O=c1c2cccnc2c(-c2cn[nH]c2)cn1-c1ccc(OC(F)(F)F)cc1 [Compound 579] | > 200
CCOc1ccc(-n2cc(-c3cn[nH]c3)c3ncccc3c2=O)c(C)c1 [Compound 580] | < 50
N#Cc1ccc(-n2cc(-c3cn[nH]c3)c3ncccc3c2=O)cc1 [Compound 581] | > 200
